Where two headings read alike, the source gives them in different places.
Assays:
[1] = Long term stability in buffer with 2.5% DMSO (LC-MS); type: physicochemical; conditions: 20 mM KPO4, 0.1 mM ZnCl2, pH 7.0 + 2.5% DMSO; LC-MS 254 nm
Description: Reagents, reactants, solvents and drying agents for synthesis, work-up and purification were purchased from commercial vendors (Sigma-Aldrich, VWR, Merck, Fluorochem, Thermo Fisher Scientific, Solveco), and if not stated otherwise they were used without further purification. Reactions and long term stability of the final compounds in buffer were monitored using LC-MS (Agilent 1260 Infinity II) equipped with an ESI-Q detector (Infinitylab LC-MSD) using Agilent InfinityLab Poroshell 120 C18 columns (2.7 μm, ϕ 2.1 mm L 50 mm or 2.7 μm, ϕ 4.6 mm L 50 mm). The intermediates were purified using VWR silica gel 60 (40–63 μm) with a Biotage Isolera One flash column chromatography instrument. The final products were purified with preparative RP-HPLC (VWR LaPrep P110) with single wavelength detection (254 nm), using a Kinetex C8 column (5 μm, 100 Å, ϕ 21.2 mm L 250 mm) and gradients of CH3CN/H2O + 0.1% formic acid as the mobile phase at a 10 mL/min flow rate. Analytical HPLC data were acquired on a VWR LaChrome ELITE system using an ACE3 C8 (3 μm, 300 Å, ϕ 3.0 mm L 100 mm) or a Kinetex C18 columns (5 μm, 100 Å, ϕ 3.0 mm L 150 mm). NMR spectra were recorded on a Varian Agilent MR400-DD2 400 MHz spectrometer equipped with a OneNMR probe, Bruker Avance Neo 500 MHz spectrometer equipped with a cryogenic TXO probe, or a Bruker Avance Neo 600 MHz spectrometer equipped with a TCI cryogenic probe. The chemical shifts are reported using the residual solvent signal as an indirect reference to TMS.
4. Long term stability of the final compounds in buffer with 2.5% DMSO
The long term stability of the final compounds in buffer (20 mM KPO4, 0.1 mM ZnCl2, pH 7.0 + 2.5% DMSO) were monitored using LC-MS (Agilent 1260 Infinity II) equipped with an ESI-Q detector (Infinitylab LC-MSD) using Agilent InfinityLab Poroshell 120 C18 column (2.7 μm, ϕ 4.6 mm L 50 mm) at 254 nm with a 7 min long gradient method (5% to 95% CH3CN) of CH3CN/H2O + 0.1% formic acid as the mobile phase at a 1.0 mL/min flow rate. The samples were measured right after dissolving them in buffer, and after 1 month of keeping the same samples dissolved in the same buffer. The main peaks (> 95%) and impurities with > 1% are […]
Figure S14. Compound 5a right after dissolving it in buffer.
Figure S15. Compound 5a kept in buffer for 1 month. […]

[2] = target: T1, GIM-1 (Pseudomonas aeruginosa, UniProt Q704V1); test: Enzymatic metallo-β-lactamase assay on purified GIM-1; type: biochemical; conditions: for logIC50 GIM-1: log of IC50, ± SEM of logIC50; for IC50: purified enzyme 1 nM, nitrocefin 2 μM, pH 7.2, 25 °C
Experimental: (§1) A few inhibitors were tested up to 1600 μM to ensure nearly complete inhibition. Solutions of 100 μL consisting of buffer, purified enzyme (1 nM for GIM-1 and VIM-2, 5 nM for NDM-1), inhibitor and reporter substrate nitrocefin (15 μM for VIM-2, 2 μM for GIM-1) or imipenem (30 μM for NDM-1) were incubated in triplicates on a 96 well plate for 5 min at 25 °C. Buffer solution consisted of 50 mM HEPES pH 7.2, 50 μM ZnSO4 and 0.4 mg/ml bovine serum albumine. Inhibitors were dissolved in DMSO but diluted to assure <2% DMSO in measured assay. Absorbance was measured at 482 nm (nitrocefin) and 300 nm (imipenem) on a SpectraMax M4 spectrophotometer. The initial velocity at each inhibitor concentration was analyzed in GraphPad Prism v9.3.1 and fitted to dose-response curves by non-linear regression (log [inhibitor] vs response) used to calculate IC50 (Supplementary Tables S2–5).

[3] = target: VIM-2 (Escherichia coli, UniProt Q5U7L7); test: Enzymatic metallo-β-lactamase assay on purified VIM-2; type: biochemical; conditions: for Ki: approximated from Dixon plots (1/v vs [I]) at one constant substrate concentration, ± SE, read-out: Estimated inhibition constant Ki VIM-2; for logIC50 VIM-2: log of IC50, ± SEM of logIC50; for IC50: purified enzyme 1 nM, nitrocefin 15 μM, pH 7.2, 25 °C
Experimental: as §1

[4] = target: NDM-1 (Klebsiella pneumoniae, UniProt C7C422); test: Enzymatic metallo-β-lactamase assay on purified NDM-1; type: biochemical; conditions: for Ki: approximated from Dixon plots (1/v vs [I]) at one constant substrate concentration, ± SE, read-out: Estimated inhibition constant Ki NDM-1; for logIC50 NDM-1: log of IC50, ± SEM of logIC50; for IC50: purified enzyme 5 nM, imipenem 30 μM, pH 7.2, 25 °C
Experimental: as §1

[5] = target: T1, GIM-1; test: Enzymatic metallo-β-lactamase assay on purified GIM-1; type: biochemical; conditions: approximated from Dixon plots (1/v vs [I]) at one constant substrate concentration; ± SE; read-out: Estimated inhibition constant Ki GIM-1
[6] = MTT cytotoxicity assay; type: cell-based; conditions: human, HepG2 cells
Experimental: Cytotoxic activity of the compounds was measured through the MTT colorimetric assay as previously described[60] using the Colorimetric (MTT) Kit for Cell Survival and Proliferation (Merck/Millipore; Darmstadt, Germany). HepG2 cells (human hepatocellular carcinoma cell line) were kept in penicillin/streptomycin-free medium overnight and then they were treated with the compounds for 24 h. Subsequently, the MTT reagent was added to the cells and after 3 h of incubation, MTT-derived formazan crystals were solubilized in acidified isopropanol (0.1 mL isopropanol with 0.04 N HCl). Absorbance was measured with multiscan spectrophotometer (Thermo Fisher Scientific) at 530 nm test and 630 nm reference wavelengths. Cell viability was expressed as the percentage of viable, untreated cells. CC50 values were determined with GraphPad Prism software (v9.3.1) and adjusted to dose-response curves by non-linear regression (Supplementary Table S7).
8. Cytotoxocity against HepG2 cells
Table S7. CC50 values and viability curves of metallo-β-lactamase inhibitors tested on HepG2 […]
cells. […]
range. Data are shown as % via bility values ± SEM (n=4). Calculations were done using […]
Inhibitors CC50 (μM) HepG2 […]

[7] = target: T2, 15N-labelled VIM-2 (Escherichia coli, UniProt Q5U7L7); test: 1H,15N-HSQC titration of VIM-2; type: binding; conditions: 10 equivalents of compound, 600 MHz, pH 7.0, 25 °C
T2 construct: made in house
Experimental: The ^1H, ^15N-HSQC spectra for the titration experiments were recorded on a Bruker Avance Neo 600 MHz spectrometer equipped with a 5 mm TCI cryogenic probe at 25 °C. The U-[^15N]-labeled VIM-2 was prepared in a buffer of 20 mM KPO4, 0.1 mM ZnCl2, at pH 7.0, containing 85% H2O/15% D2O at a concentration of 0.25 mM. The U-[^15N]-labeled NDM-1 was used in a buffer of 20 mM HEPES, 0.1 mM ZnCl2, at pH 7.0, containing 85% H2O/15% D2O at a concentration of 0.25 mM. The ligands 5d, 5g, 5i, 5j (for VIM-2 titrations) and 5 f (for NDM-1 titration) were dissolved in the same buffer as the corresponding enzymes. Spectra were recorded using solvent suppression, 1024 points in f1, 16 transients, 512 increments in f2 and a relaxation delay of 0.2 s. The titrations were carried out with 0, 0.25, 0.50, 1.00, 1.50, 2.25, 3.00, 4.00, 5.00, 7.00, 10.0 equivalents of the inhibitors.
Figure S47. Superimposition of the 1H,15N-HSQC spectrum (600 MHz, pH 7.0, 25 °C) of
VIM-2 in the absence (blue) and in the presence (green) of 10 molar equivalent of compound
5j. Buffer: 20 mM KPO4, 0.1 mM ZnCl2, with 15% D2O.
Chemical shift perturbation values (CSP, ΔδNH) were calculated as the weighted average of
the chemical shift changes in f1 (ΔδN) and f2 (ΔδH) dimensions using the following equation 8:
∆δ = √∆δ 2 + ( N ); R = 6.5
Figure S48. Linear regression of the chemical shift perturbations of compound 5g (IC50 =
12 μM) as a function of the chemical shift perturbations of compounds 5c (yellow circle), 5d
(grey square), 5i (green triangle) and 5j (blue circle) for VIM-2. The data of the studied […]

[8] = HepG2, MTT, read-out: CC50 (in viability curve)
[9] = MTT, 0.0025 mM - 1mM concentration range, read-out: Cytotoxicity CC50 HepG2

Chain of NDM-1 (C7C422 29-270, looked up, species assumed): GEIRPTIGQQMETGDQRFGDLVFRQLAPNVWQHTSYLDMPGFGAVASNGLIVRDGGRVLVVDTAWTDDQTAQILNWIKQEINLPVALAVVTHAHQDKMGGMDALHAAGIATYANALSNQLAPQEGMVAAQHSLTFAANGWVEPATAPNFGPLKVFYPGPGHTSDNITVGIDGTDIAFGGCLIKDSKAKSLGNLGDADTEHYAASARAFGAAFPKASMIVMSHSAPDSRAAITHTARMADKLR
T1 sequence (Q704V1 entry or part of it): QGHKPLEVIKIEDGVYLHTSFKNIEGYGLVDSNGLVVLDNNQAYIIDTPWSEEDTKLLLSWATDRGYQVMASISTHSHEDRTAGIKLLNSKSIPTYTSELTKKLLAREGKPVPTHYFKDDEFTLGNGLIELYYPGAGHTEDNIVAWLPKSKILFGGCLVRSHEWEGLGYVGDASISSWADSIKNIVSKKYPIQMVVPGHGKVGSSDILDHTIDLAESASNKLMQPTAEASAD

main peak Area% kept in buffer for 1 month [1] [%]	main peak Area% right after dissolving in buffer [1] [%]	logIC50 GIM-1 [2] [μM]	IC50 [2] [µM]	Ki [3] [µM]	logIC50 VIM-2 [3] [μM]	IC50 [3] [µM]	Ki [4] [µM]	logIC50 NDM-1 [4]	IC50 [4] [µM]	Ki [5] [µM]	Structure (SMILES)	CC50 at 24 h [6, 8] [µM]	CC50 at 24 h [6, 9] [µM]	Mean chemical shift perturbation, VIM-2 [7] [ppm]
95.39	95.97	1.54 ± 0.13	35	85 ± 12	1.74 ± 0.05	55	363 ± 86	1.93 ± 0.09 log10(IC50/μM)	85	118 ± 20	O=C(NC(c1ccccc1O)P(=O)(O)O)c1ccccc1 (centres unmarked) [5h]	> 1000	> 1000	–
95.03	95.46	2.37 ± 0.21	236	112 ± 11	2.10 ± 0.08	124	451 ± 57	1.99 ± 0.13 log10(IC50/μM)	97	162 ± 21	O=C(NC(c1ccccc1O)P(=O)(O)O)c1ccsc1 (centres unmarked) [5b]	1800	1830	–
98.10	98.54	1.71 ± 0.07	51	39 ± 5	1.42 ± 0.18	26	411 ± 160	1.83 ± 0.05 log10(IC50/μM)	67	193 ± 41	O=C(Cc1csc2ccccc12)NC(c1ccccc1O)P(=O)(O)O (centres unmarked) [5l]	3900	3910	–
98.87	98.53	1.73 ± 0.12	53	72 ± 7	1.90 ± 0.11	79	–	–	–	76 ± 5	O=C(NC(c1ccccc1O)P(=O)(O)O)c1cc2c(s1)CCCC2 (centres unmarked) [5e]	> 1000	> 1000	–
–	96.96	2.08 ± 0.53	121	74 ± 7	1.87 ± 0.35	74	–	–	–	213 ± 22	O=C(Cc1ccccc1)NC(c1ccccc1O)P(=O)(O)O (centres unmarked) [5m]	> 1000	> 1000	–
95.67	95.87	1.30 ± 0.08	20	36 ± 6	1.85 ± 0.07	71	617 ± 95	2.34 ± 0.09 log10(IC50/μM)	217	144 ± 36	O=C(NC(c1ccccc1O)P(=O)(O)O)c1cccs1 (centres unmarked) [5a]	4500	4550	–
98.27	98.10	1.90 ± 0.08	80	119 ± 13	1.71 ± 0.07	51	262 ± 41	1.81 ± 0.11 log10(IC50/μM)	65	189 ± 76	O=C(Cc1cc2ccccc2s1)NC(c1ccccc1O)P(=O)(O)O (centres unmarked) [5k]	5600	5610	–

Structure (SMILES)	main peak Area% kept in buffer for 1 month [1] [%]	main peak Area% right after dissolving in buffer [1] [%]	logIC50 GIM-1 [2] [μM]	IC50 [2] [µM]	Ki [3] [µM]	logIC50 VIM-2 [3] [μM]	IC50 [3] [µM]	Ki [4] [µM]	logIC50 NDM-1 [4]	IC50 [4] [µM]	Ki [5] [µM]	CC50 at 24 h [6, 8] [µM]	CC50 at 24 h [6, 9] [µM]	Mean chemical shift perturbation, VIM-2 [7] [ppm]
O=C(NC(c1ccccc1O)P(=O)(O)O)c1csc2ccccc12 (centres unmarked) [5d]	97.15	97.92	1.01 ± 0.19	10	31 ± 5	1.33 ± 0.03	21	–	–	–	64 ± 13	4400	4440	0.04
O=C(NC(c1ccccc1O)P(=O)(O)O)c1cc2ccccc2s1 (centres unmarked) [5c]	97.59	97.20	2.01 ± 0.09	101	71 ± 6	2.01 ± 0.05	103	–	–	–	102 ± 10	2900	2930	0.05
O=C(Cc1ccsc1)NC(c1ccccc1O)P(=O)(O)O (centres unmarked) [5j]	96.88	95.28	2.01 ± 0.06	103	88 ± 16	1.57 ± 0.03	37	196 ± 13	2.37 ± 0.07 log10(IC50/μM)	232	–	4000	3970	0.04

— article PMC12009420, “Dynamically chiral phosphonic acid-type metallo-β-lactamase inhibitors” (Communications Chemistry, 2025)
